Data published in patent US9796777B2, “Methods of treating malignant tumors” (Canimguide Therapeutics AB, priority 2007, dated 2017).

Experiments:
PBMC [1] = assay: IL-2 induced proliferation of PBMC with albumin peptides in coated and uncoated tissue culture plates; type: cell-based, human
Protocol: A mixture of 1 mg/ml IgG in a solution of 9 mg/ml HSA in RPMI (HSA/IgG) was also prepared. 200 μl of HSA or HSA/IgG were then added to each well of the plate. The plates were incubated at 4° C. for 30 minutes after which the wells were washed twice with 200 μl of RPMI1640. The coated plates were used immediately. […] PBMC, isolated from healthy individuals, were diluted in RPMI/2% HSA and peptides were added directly to the cell suspension at a concentration of 10 μg/ml.

CD25 = assay: Binding of biotinylated IL-2 to CD25-Fc fusion protein on ELISA plates with or without peptide 3028; settings: CD25-Fc on protein G coated plates
Text: Based on this observation, the effect of peptide 3028 on the binding of IL-2 to CD25 was studied. […] Amazingly, the binding of IL-2 to CD25 was enhanced by peptide 3028, indicating a three-part interaction between IL-2, CD25 and 3028.

PBMC [2] = assay: LPS-induced IL-6 production by PBMC, effect of peptides; type: cell-based, human; settings: three cancer patients
PBMC [3] = assay: Human ex vivo model: IL-2 induced proliferation of PBMC in the presence of albumin peptides
[4] = test system: cell surface receptors of immune cells (ACS); assay: Adsorption of enzyme fragmented dHSA on affinity column with biotinylated cell surface proteins (ACS), MALDI-TOF ms; type: binding, human
Protocol: Based on the observation that immunoregulatory peptide sequences are present in serum albumin, there is the possibility that other sequences than the epitope of mAb A have immunoregulatory function. Therefore an artificial cell surface (ACS) was prepared as described in materials and methods. […]
To remove unfragmented albumin and enzyme, the sample was ultra filtered through an Amicon Ultra 4 (mw cut-off of 5000) or a Centriplus (mw cut-off 10000) centrifugal filter (Millipore AB, Solna, Sweden). The filtrate, containing fragmented dHSA without enzymes, was collected and diluted with PBS with Ca and Mg (GIBCO).
Buffy coats generated from 450 ml blood each was collected from 4 healthy donors. Erythrocytes were removed by sedimentation on 2% dextran T500 solution (Amersham Pharmacia Biotech AB, Uppsala Sweden) in 0.9% NaCl. Mononuclear cells (PBMC) were then isolated by Ficoll-Paque Plus (GE Healthcare Bioscience AB Sweden) density gradient centrifugation. The PBMC were then suspended in phosphate buffered saline (PBS) containing Ca and Mg (GIBCO) at a concentration of 10×10^6/ml. EZ Link Sulfo-NHS-biotin (Pierce USA) was added at a final concentration of 0.2 mg/ml and the mixture incubated on a shaker at room temperature for 10 min. Excess biotin was then removed by washing the PBMC in PBS. Biotinylated PBMC were then lysed by adding 1.0 ml ice-cold lysing buffer (50 mM Tris-HCL, pH 7.5, with 0.15 M NaCl, 5 mM MgCl2 containing 100 mM Octyl glucoside and 1 mM Phenylmethylsulfonyl fluoride) per 2×10^7 pelleted cells with gentle shaking, then incubated for 30 min. on ice. Debris was removed by centrifugation at 5000×g at 4° C. for 10 min and the supernatants was collected and pooled from all four donors. The lysate was then stored at −70° C. in polypropylene plastic tubes.
This amount of lysate corresponds to 36×10^7 mononuclear cells. It was added to a 1 ml Hitrap Streptavidin HP affinity column (Amersham Biosciences). To block possible remaining free biotin, 5 ml of 0.1 M glycine (Sigma) was added to the column. Unsaturated streptavidin on the column was then reacted with 150 ug biotin (Sigma) in binding buffer. The column was carefully washed with PBS and stored in PBS with 0.1% NaN3 at 4° C. until use.
27 ml biotinylated cell lysate in binding buffer (corresponding to 54×10^7 mononuclear cells) was added to 1.5 ml washed Streptavidin Sepharose HP (Amersham Biosciences). To block possible remaining free biotin, 25 ml of 0.1 M glycine (Sigma) was added to the Streptavidin Sepharose. Unsaturated streptavidin was then reacted with 225 μg biotin (Sigma) in binding buffer. The Streptavidin Sepharose was carefully washed in PBS. One ml of the biotinylated cell lysate coupled Streptavidin Sepharose was then packed in an empty column (Tricorn Empty High Performance Column, Amersham Bioscience) and washed with phosphate buffered saline (PBS) containing Ca and Mg (GIBCO).
The flow-through was collected with consideration taken to void volume and dilution of adsorbed sample by collecting in small portions of 0.2 ml. Thirty ul of each sample, including a control sample that has not been adsorbed, were dried in a Speed-Vac centrifuge.
Dried samples were reconstituted in 10 ul of 0.1% TFA. Zip Tip pipette tips (Millipore, USA) containing C18 reversed-phase media were used for desalting reconstituted samples. […] For the analysis of samples in the mass range 1500-9000 Da, one μl of each Zip Tip eluted sample was mixed with 1 μl of sinapinic acid ([…]). […] Mass identity search of resulting spectra was performed in the SwissProt or NCBI databases using MS-Fit.

PBMC [5] = assay: IL-2 induced proliferation of PBMC in the presence of affinity purified rabbit anti-3028; type: cell-based, human; settings: small amount of peptide 3028 having no inhibitory activity per se
Protocol: Serum containing culture medium (100 ul/well) was pre-incubated with 20 ug/ml of rabbit antibodies for 30 min at room temperature before the addition of 100 ul PBMC suspension to the culture wells.

CD25, sequence (P01589 22-240 limits assumed): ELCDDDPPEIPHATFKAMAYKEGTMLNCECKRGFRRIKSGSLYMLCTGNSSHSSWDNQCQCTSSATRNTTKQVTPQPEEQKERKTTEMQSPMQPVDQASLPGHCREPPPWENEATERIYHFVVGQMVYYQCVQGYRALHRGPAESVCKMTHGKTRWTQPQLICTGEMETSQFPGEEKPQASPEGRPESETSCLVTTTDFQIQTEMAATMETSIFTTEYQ

VFDEFKPLVEEPQNLIK [peptide 3028] was tested, and the “inhibitory effect on IL-2 induced proliferation under modulation of the Fc-receptor cross-linking” value (PBMC [1]; HSA/IgG coated plates) was “completely reversed”, the “effect on IL-2 induced proliferation” value (PBMC [1]; PBMC from healthy individuals, peptide 5 μg/ml final, 7 days) was “highly inhibitory” and the “effect on the binding of IL-2 to CD25” value (CD25) was “enhanced”. For the same sequence, the “effect on LPS induced IL-6 production” value (PBMC [2]) was “essentially no effects”, the “effect on IL-2 induced proliferation” value (PBMC [3]; cancer patient PBMCs) was “inhibitory activity” and the “effect on IL-2 induced proliferation” value (PBMC [3]; human ex vivo model, PBMCs from healthy controls, peptides 10 μg/ml) was “regularly inhibits IL-2 induced proliferation”. The Per cent adsorbed ([4]; Table 5 A, peptides generated by trypsin degradation of dHSA) was 0.60 Per cent, the “Per cent adsorbed” value ([4]; Table 5 B, trypsin peptides selected for synthesis) was 0.60 Per cent and the “effect on the stimulatory effect of anti-3028 antibodies” value (PBMC [5]) was “neutralized”.
